Assays:
[1] = system: rat stomachs; experiment: Gastric emptying in the rat model (phenol red method); format: in vivo, Male Wistar rats; conditions: mean ± SEM
Experimental: This study aimed to investigate the prokinetic effects of Mesdopetam, a dopamine receptor antagonist, on rat stomachs by assessing gastric emptying at three different doses: 1.24 mg/kg, 2.48 mg/kg, and 3.72 mg/kg. Male Wistar rats were used as the animal model. Gastric emptying time was measured at specific time intervals post-administration, and the results were compared to determine the impact of Mesdopetam on gastric motility.
• Animal Model: Male Wistar rats (250-300 g) were used for the study. • Drug Administration: Mesdopetam was administered orally to rats at three different doses: 1.24 mg/kg, 2.48 mg/kg, and 3.72 mg/kg. The control group received a placebo. • Experimental Groups: Rats were divided into four groups: control (receiving placebo) and three treatment groups (receiving Mesdopetam at the respective doses). • Measurement of Gastric Emptying: Gastric emptying time was measured using a non-invasive method, such as the phenol red method. Rats were fasted overnight before the experiment, and the drug was administered following the fasting period. • Data Collection: Gastric emptying time was recorded at specific time points post-treatment: 1 hour, 2 hours, 4 hours, and 8 hours. • Statistical Analysis: The data were analyzed using appropriate statistical tests (e.g., one-way ANOVA followed by post hoc tests) to determine significant differences in gastric emptying time between the control and treatment groups at each dose level.
The results of the study are presented as mean gastric emptying time (in minutes) for each group at different time points post-treatment: […]

[2] = target: dopamine D3 receptor (D3R) (Homo sapiens, UniProt P35462); conditions: antagonist; cited from earlier work
[3] = main metabolites in man, present in plasma and urine; cited from earlier work
[4] = cited from earlier work

dopamine D3 receptor (D3R), sequence (P35462 whole entry): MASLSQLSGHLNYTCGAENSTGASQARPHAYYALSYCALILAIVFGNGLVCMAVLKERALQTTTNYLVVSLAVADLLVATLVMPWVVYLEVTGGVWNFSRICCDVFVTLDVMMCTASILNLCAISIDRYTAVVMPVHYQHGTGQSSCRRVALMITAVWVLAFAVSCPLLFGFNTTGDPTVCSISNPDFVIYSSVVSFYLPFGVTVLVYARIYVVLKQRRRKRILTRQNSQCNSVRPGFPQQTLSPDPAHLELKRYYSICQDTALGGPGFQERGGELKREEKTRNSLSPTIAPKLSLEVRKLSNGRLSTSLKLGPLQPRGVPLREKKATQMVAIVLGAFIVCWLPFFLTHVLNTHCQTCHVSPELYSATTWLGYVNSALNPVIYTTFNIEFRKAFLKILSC

Q: With `CCCNCCOc1cc(F)cc(S(C)(=O)=O)c1` [Mesdopetam, [2-(3-fluoro-5-methylsulfonylphenoxy)ethyl]propan-1-amine] as the compound, how does the “mean gastric emptying time” value ([1]; 1.24 mg/kg oral, 1 hour post-treatment) read?
A: Its value is 38.5 ± 1.8 min.

Q: What about the “mean gastric emptying time” value ([1]; 1.24 mg/kg oral, 2 hours post-treatment) of the same compound?
A: The value was 32.4 ± 1.5 min.

Q: What about the “mean gastric emptying time” value ([1]; 1.24 mg/kg oral, 4 hours post-treatment) of the same compound?
A: Its value is 27.9 ± 1.3 min.

Q: What about the “mean gastric emptying time” value ([1]; 1.24 mg/kg oral, 8 hours post-treatment) of the same compound?
A: Its value is 24.6 ± 1.1 min.

Q: And the “mean gastric emptying time” value ([1]; 2.48 mg/kg oral, 1 hour post-treatment)?
A: Its value is 32.1 ± 1.6 min.

Q: And the “mean gastric emptying time” value ([1]; 2.48 mg/kg oral, 2 hours post-treatment)?
A: The value was 26.9 ± 1.4 min.

Q: And the “mean gastric emptying time” value ([1]; 2.48 mg/kg oral, 4 hours post-treatment)?
A: Its value is 23.4 ± 1.2 min.

Q: And the “mean gastric emptying time” value ([1]; 2.48 mg/kg oral, 8 hours post-treatment)?
A: Its value is 19.8 ± 1.0 min.

Q: What about the “mean gastric emptying time” value ([1]; 3.72 mg/kg oral, 1 hour post-treatment) of the same compound?
A: Its value is 29.6 ± 1.4 min.

Q: What about the “mean gastric emptying time” value ([1]; 3.72 mg/kg oral, 2 hours post-treatment) of the same compound?
A: Its value is 23.8 ± 1.2 min.

Q: What about the “mean gastric emptying time” value ([1]; 3.72 mg/kg oral, 4 hours post-treatment) of the same compound?
A: Its value is 20.3 ± 1.0 min.

Q: And the “mean gastric emptying time” value ([1]; 3.72 mg/kg oral, 8 hours post-treatment)?
A: The value was 17.5 ± 0.9 min.

Q: What about the Ki [2] of the same compound?
A: The Ki was ~90 nM.

Q: With `CS(=O)(=O)c1cc(F)cc(OCCN)c1` [M1] as the compound, how does the “pharmacological activity of metabolite” value [3] read?
A: The value was “pharmacologically inactive”.

Q: Which results are given for `CCN(CC)CCNC(=O)c1cc(Cl)c(N)cc1OC` [metoclopramide]?
A: incidence of extrapyramidal reactions ([4]; aged and young patients): ≤ 25%; reported incidence of extrapyramidal reactions ([4]; overall): 0.2%

Q: Which “pharmacological activity of metabolite” value [3] does the source give for `CC(=O)NCCOc1cc(F)cc(S(C)(=O)=O)c1` [M2] here?
A: Its value is “pharmacologically inactive”.
